Measured values reported in ChEMBL document CHEMBL1153245, “A profile of the in vitro anti-tumor activity of imidazolium-based ionic liquids” (2010).

Experiments:
Assay type in all cases: functional
[1] = test system: SN12C; assay: Anticancer activity against human SN12C cells after 48 hrs by sulforhodamine B assay; details: Homo sapiens, SN12C, 48 h
[2] = test system: HCT-15; assay: Anticancer activity against human HCT15 cells after 48 hrs by sulforhodamine B assay; details: Homo sapiens, HCT-15, 48 h
[3] = test system: PC-3; assay: Anticancer activity against human PC3 cells assessed cell growth at 10 uM after 48 hrs by sulforhodamine B assay relative to control
[4] = test system: CAKI-1; assay: Anticancer activity against human Caki1 cells after 48 hrs by sulforhodamine B assay; details: Homo sapiens, CAKI-1, 48 h
[5] = test system: RXF 393; assay: Anticancer activity against human RXF393 cells after 48 hrs by sulforhodamine B assay; details: Homo sapiens, RXF 393, 48 h
[6] = test system: LOX IMVI; assay: Anticancer activity against human LOXIMVI cells after 48 hrs by sulforhodamine B assay; details: Homo sapiens, LOX IMVI, 48 h
[7] = test system: MDA-MB-468; assay: Anticancer activity against human MDA-MB-468 cells assessed cell growth at 10 uM after 48 hrs by sulforhodamine B assay relative to control
[8] = test system: NCI-H460; assay: Anticancer activity against human NCI-H460 cells assessed cell growth at 10 uM after 48 hrs by sulforhodamine B assay relative to control
[9] = test system: T47D; assay: Anticancer activity against human T47D cells after 48 hrs by sulforhodamine B assay; details: Homo sapiens, T47D, 48 h
[10] = test system: SNB-19; assay: Anticancer activity against human SNB19 cells assessed cell growth at 10 uM after 48 hrs by sulforhodamine B assay relative to control
[11] = test system: OVCAR-8; assay: Anticancer activity against human OVCAR8 cells assessed cell growth at 10 uM after 48 hrs by sulforhodamine B assay relative to control
[12] = test system: MDA-MB-231; assay: Anticancer activity against human MDA-MB-231 cells after 48 hrs by sulforhodamine B assay; details: Homo sapiens, MDA-MB-231, 48 h
[13] = test system: 786-0; assay: Anticancer activity against human 786-0 cells after 48 hrs by sulforhodamine B assay; details: Homo sapiens, 786-0, 48 h
[14] = test system: MCF7; assay: Anticancer activity against human MCF7 cells after 48 hrs by sulforhodamine B assay; details: Homo sapiens, MCF7, 48 h
[15] = test system: MCF7; assay: Anticancer activity against human MCF7 cells assessed cell growth at 10 uM after 48 hrs by sulforhodamine B assay relative to control
[16] = test system: MDA-MB-435; assay: Anticancer activity against human MDA-MB-435 cells after 48 hrs by sulforhodamine B assay; details: Homo sapiens, MDA-MB-435, 48 h
[17] = test system: SK-OV-3; assay: Anticancer activity against human SKOV3 cells after 48 hrs by sulforhodamine B assay; details: Homo sapiens, SK-OV-3, 48 h
[18] = test system: K562; assay: Anticancer activity against human K562 cells after 48 hrs by sulforhodamine B assay; details: Homo sapiens, K562, 48 h
[19] = test system: OVCAR-3; assay: Anticancer activity against human OVCAR-3 cells after 48 hrs by sulforhodamine B assay; details: Homo sapiens, OVCAR-3, 48 h
[20] = test system: RXF 393; assay: Anticancer activity against human RXF393 cells assessed cell growth at 10 uM after 48 hrs by sulforhodamine B assay relative to control
[21] = test system: LOX IMVI; assay: Anticancer activity against human LOXIMVI cells assessed cell growth at 10 uM after 48 hrs by sulforhodamine B assay relative to control
[22] = test system: UACC-257; assay: Anticancer activity against human UACC257 cells after 48 hrs by sulforhodamine B assay; details: Homo sapiens, UACC-257, 48 h
[23] = test system: SW-620; assay: Anticancer activity against human SW620 cells after 48 hrs by sulforhodamine B assay; details: Homo sapiens, SW-620, 48 h
[24] = test system: MOLT-4; assay: Anticancer activity against human MOLT4 cells after 48 hrs by sulforhodamine B assay; details: Homo sapiens, MOLT-4, 48 h
[25] = test system: TK-10; assay: Anticancer activity against human TK10 cells assessed cell growth at 10 uM after 48 hrs by sulforhodamine B assay relative to control
[26] = test system: SK-MEL-5; assay: Anticancer activity against human SK-MEL-5 cells after 48 hrs by sulforhodamine B assay; details: Homo sapiens, SK-MEL-5, 48 h
[27] = test system: HOP-92; assay: Anticancer activity against human HOP92 cells after 48 hrs by sulforhodamine B assay; details: Homo sapiens, HOP-92, 48 h
[28] = test system: A549; assay: Anticancer activity against human A549 cells assessed cell growth at 10 uM after 48 hrs by sulforhodamine B assay relative to control
[29] = test system: IGROV-1; assay: Anticancer activity against human IGROV1 cells assessed cell growth at 10 uM after 48 hrs by sulforhodamine B assay relative to control
[30] = test system: M14; assay: Anticancer activity against human M14 cells after 48 hrs by sulforhodamine B assay; details: Homo sapiens, M14, 48 h
[31] = test system: HOP-62; assay: Anticancer activity against human HOP62 cells assessed cell growth at 10 uM after 48 hrs by sulforhodamine B assay relative to control
[32] = test system: HT-29; assay: Anticancer activity against human HT-29 cells after 48 hrs by sulforhodamine B assay; details: Homo sapiens, HT-29, 48 h
[33] = test system: HCC 2998; assay: Anticancer activity against human HCC2998 cells after 48 hrs by sulforhodamine B assay; details: Homo sapiens, HCC 2998, 48 h
[34] = test system: SR; assay: Anticancer activity against human SR cells after 48 hrs by sulforhodamine B assay; details: Homo sapiens, SR, 48 h
[35] = test system: COLO 205; assay: Anticancer activity against human COLO205 cells after 48 hrs by sulforhodamine B assay; details: Homo sapiens, COLO 205, 48 h
[36] = test system: OVCAR-4; assay: Anticancer activity against human OVCAR4 cells after 48 hrs by sulforhodamine B assay; details: Homo sapiens, OVCAR-4, 48 h
[37] = test system: NCI/ADR-RES; assay: Anticancer activity against human NCI/ADR-RES cells after 48 hrs by sulforhodamine B assay; details: Homo sapiens, NCI/ADR-RES, 48 h
[38] = test system: BT-549; assay: Anticancer activity against human BT549 cells after 48 hrs by sulforhodamine B assay; details: Homo sapiens, BT-549, 48 h
[39] = Anticancer activity against human […] cells after 48 hrs by sulforhodamine B assay; details: Homo sapiens, RPMI8266, 48 h
[40] = test system: NCI-H322M; assay: Anticancer activity against human NCI-H322M cells assessed cell growth at 10 uM after 48 hrs by sulforhodamine B assay relative to control
[41] = test system: UO-31; assay: Anticancer activity against human UO31 cells assessed cell growth at 10 uM after 48 hrs by sulforhodamine B assay relative to control
[42] = read-out: LC50 (the source's name)

Work on `CCCCCCCCCCCCCCCCCC[n+]1ccn(C)c1.O=S(=O)([N-]S(=O)(=O)C(F)(F)F)C(F)(F)F` yielded a GI50 [1] of 1250 nM, an LC50 [1] of 5720 nM and a GI50 [2] of 1070 nM. For the same molecule, the CC50 [2, 42] was 5940 nM, the Activity [3] was -62.3% and the GI50 [4] was 263 nM. It also gave an LC50 [4] of 6720 nM, a GI50 [5] of 1030 nM and an LC50 [5] of 6550 nM. For the same molecule, the GI50 [6] was 406 nM, the CC50 [6, 42] was 5240 nM and the Activity [7] was -20.4%. For the same molecule, the Activity [8] was -51.32%, the GI50 [9] was 600 nM and the CC50 [9, 42] was greater than 100000 nM. For the same molecule, the Activity [10] was -68%, the Activity [11] was -37.35% and the GI50 [12] was 1040 nM. The CC50 [12, 42] was 5930 nM, the GI50 [13] was 952 nM and the LC50 (50% lethal concentration) [13] was greater than 100000 nM. It also gave a GI50 [14] of 1000 nM, an LC50 (50% cell kill) [14] of 5520 nM and an Activity [15] of 6.12%. For the same molecule, the GI50 [16] was 1080 nM, the CC50 [16, 42] was 6690 nM and the GI50 [17] was 1160 nM. For the same molecule, the CC50 [17, 42] was 5820 nM, the GI50 [18] was 312 nM and the CC50 [18, 42] was greater than 100000 nM. The GI50 [19] was 442 nM, the LC50 (50% lethal concentration) [19] was 4710 nM and the Activity [20] was -62.07%. For the same molecule, the Activity [21] was -52.24%, the GI50 [22] was 1530 nM and the LC50 [22] was greater than 100000 nM. The GI50 [23] was 520 nM, the LC50 [23] was 6480 nM and the GI50 [24] was 650 nM. For the same molecule, the LC50 [24] was greater than 100000 nM, the Activity [25] was -72.43% and the GI50 [26] was 532 nM. The CC50 [26, 42] was 4210 nM, the GI50 [27] was 350 nM and the CC50 [27, 42] was greater than 100000 nM. The Activity [28] was -47.24%, the Activity [29] was -43.09% and the GI50 [30] was 537 nM. It also gave an LC50 (50% lethal concentration) [30] of 6840 nM, an Activity [31] of -74.14% and a GI50 [32] of 378 nM. The CC50 [32, 42] was 9130 nM, the GI50 [33] was 494 nM and the CC50 [33, 42] was 9070 nM. For the same molecule, the GI50 [34] was 1240 nM, the CC50 [34, 42] was greater than 100000 nM and the GI50 [35] was 350 nM. It also gave a CC50 [35, 42] of 4020 nM, a GI50 [36] of 351 nM and a CC50 [36, 42] greater than 100000 nM. For the same molecule, the GI50 [37] was 1240 nM, the LC50 [37] was 9410 nM and the GI50 [38] was 1060 nM. For the same molecule, the CC50 [38, 42] was 5950 nM, the GI50 [39] was 62 nM and the CC50 [39, 42] was greater than 100000 nM. It also gave an Activity [40] of 6.16% and an Activity [41] of -66.09%.
